Counter-ions that a name gives are not always drawn.
Legend:
female Wistar rat = test: Animal test in vivo: average food consumption (appetite inhibition); conditions: positive control 15 mg/kg
Method: (§1) 6-7 weeks-old female Wistar rat (purchased from Shanghai Laboratory Animal Center of Chinese Academy of Sciences)(weight: 110-150 g) was raised alone in suspended metal cage. After the experimental rat was obtained, it was checked to make sure whether they were abnormal or had obvious disease signs. The rat can freely obtain the drinking-water and feed for rodent (RM1(E)AQC). The feeding cage was controlled to receive 12 h illumination (from 07:00 to 19:00) and to be in a dark environment for 12 h, and the room temperature and relative humidity were controlled to be 21±3° C. and 55±15% respectively and not to deviate the upper and lower limit. The rats were randomly divided into groups depending on the body weight according to random number table to make the average weight in each group are approximately equal. Before the test, the rats were pre-trained suitably for one week (from −7th day to −1st day) during which the consumptions of feed and drinking water were recorded.
(§2) Each group of drug to be tested, positive control group, and blank control group consisted of 5 rats, respectively. The tested drug and positive control drug were mixed with wheaten starch before the administration and formulated to suspension with required doses according to 10 mL/kg of administration volume. The positive control drug was sibutramine hydrochloride and the administration dosage was 15 mg/kg body weight. In the blank control group, only equal amount of starch was used to formulate suspension for administration by […] in a same volume. The administration time is the 1st day, 2nd day and 3rd day. The body weight of the rat, the consumption of the feed (the weight of the feeding hopper) and consumption of the drinking water (bottle weight) were recorded from the −7th day to the 7th day.

[1] = Animal test in vivo: average body weight; parameters: species or system rat; conditions: positive control 15 mg/kg
Method: as §1, §2

## CC(C)CC(N(C)C)C1(c2ccc(Cl)cc2)CCC1 (centres unmarked) [Positive control, sibutramine hydrochloride, reference compound]
Female Wistar rat; 1st day (administration day), Table 1, crude extract 300 mg/kg, others 50 mg/kg
  Average food consumptions: 5.0 g
Female Wistar rat; 1st day (administration day), Table 4, wilfosides 50 mg/kg
  Average food consumptions: 4 g
Female Wistar rat; 2nd day (administration day), Table 1, crude extract 300 mg/kg, others 50 mg/kg
  Average food consumptions: 8.5 g
Female Wistar rat; 2nd day (administration day), Table 4, wilfosides 50 mg/kg
  Average food consumptions: 7.6 g
Female Wistar rat; 3rd day (administration day), Table 1, crude extract 300 mg/kg, others 50 mg/kg
  Average food consumptions: 13.0 g
Female Wistar rat; 3rd day (administration day), Table 4, wilfosides 50 mg/kg
  Average food consumptions: 8.4 g
Female Wistar rat; 4th day (after administration on days 1-3), Table 1, crude extract 300 mg/kg, others 50 mg/kg
  Average food consumptions: 14.0 g
Female Wistar rat; 4th day (after administration on days 1-3), Table 4, wilfosides 50 mg/kg
  Average food consumptions: 10 g
Female Wistar rat; 5th day (after administration on days 1-3), Table 1, crude extract 300 mg/kg, others 50 mg/kg
  Average food consumptions: 13.5 g
Female Wistar rat; 5th day (after administration on days 1-3), Table 4, wilfosides 50 mg/kg
  Average food consumptions: 12.8 g
Female Wistar rat; 6th day (after administration on days 1-3), Table 1, crude extract 300 mg/kg, others 50 mg/kg
  Average food consumptions: 14.5 g
Female Wistar rat; 6th day (after administration on days 1-3), Table 4, wilfosides 50 mg/kg
  Average food consumptions: 14.4 g
Female Wistar rat; 7th day (after administration on days 1-3), Table 1, crude extract 300 mg/kg, others 50 mg/kg
  Average food consumptions: 17.5 g
Female Wistar rat; 7th day (after administration on days 1-3), Table 4, wilfosides 50 mg/kg
  Average food consumptions: 14.8 g
Female Wistar rat; −1st day (before administration), Table 1, crude extract 300 mg/kg, others 50 mg/kg
  Average food consumptions: 14.5 g
Female Wistar rat; −1st day (before administration), Table 4, wilfosides 50 mg/kg
  Average food consumptions: 13.2 g
Female Wistar rat; −2nd day (before administration), Table 1, crude extract 300 mg/kg, others 50 mg/kg
  Average food consumptions: 14.5 g
Female Wistar rat; −2nd day (before administration), Table 4, wilfosides 50 mg/kg
  Average food consumptions: 16 g
Female Wistar rat; −3rd day (before administration), Table 1, crude extract 300 mg/kg, others 50 mg/kg
  Average food consumptions: 15.5 g
Female Wistar rat; −3rd day (before administration), Table 4, wilfosides 50 mg/kg
  Average food consumptions: 12.8 g
Female Wistar rat; −4th day (before administration), Table 1, crude extract 300 mg/kg, others 50 mg/kg
  Average food consumptions: 14.5 g
Female Wistar rat; −4th day (before administration), Table 4, wilfosides 50 mg/kg
  Average food consumptions: 12.8 g
Female Wistar rat; −5th day (before administration), Table 1, crude extract 300 mg/kg, others 50 mg/kg
  Average food consumptions: 14.5 g
Female Wistar rat; −5th day (before administration), Table 4, wilfosides 50 mg/kg
  Average food consumptions: 14.8 g
Female Wistar rat; −6th day (before administration), Table 1, crude extract 300 mg/kg, others 50 mg/kg
  Average food consumptions: 15.3 g
Female Wistar rat; −6th day (before administration), Table 4, wilfosides 50 mg/kg
  Average food consumptions: 10.8 g
Female Wistar rat; −7th day (before administration), Table 1, crude extract 300 mg/kg, others 50 mg/kg
  Average food consumptions: 11.5 g
Female Wistar rat; −7th day (before administration), Table 4, wilfosides 50 mg/kg
  Average food consumptions: 10.4 g
[1]; 1st day (administration day), Table 3, crude extract 300 mg/kg, others 50 mg/kg
  Average body weight: 142.4 g
[1]; 1st day (administration day), Table 6, wilfosides 50 mg/kg
  Average body weight: 133.2 g
[1]; 2nd day (administration day), Table 3, crude extract 300 mg/kg, others 50 mg/kg
  Average body weight: 140 g
[1]; 2nd day (administration day), Table 6, wilfosides 50 mg/kg
  Average body weight: 128.4 g
[1]; 3rd day (administration day), Table 3, crude extract 300 mg/kg, others 50 mg/kg
  Average body weight: 141.6 g
[1]; 3rd day (administration day), Table 6, wilfosides 50 mg/kg
  Average body weight: 128.4 g
[1]; 4th day (after administration on days 1-3), Table 3, crude extract 300 mg/kg, others 50 mg/kg
  Average body weight: 146.8 g
[1]; 4th day (after administration on days 1-3), Table 6, wilfosides 50 mg/kg
  Average body weight: 132.4 g
[1]; 5th day (after administration on days 1-3), Table 3, crude extract 300 mg/kg, others 50 mg/kg
  Average body weight: 148.4 g
[1]; 5th day (after administration on days 1-3), Table 6, wilfosides 50 mg/kg
  Average body weight: 135.6 g
[1]; 6th day (after administration on days 1-3), Table 3, crude extract 300 mg/kg, others 50 mg/kg
  Average body weight: 153.6 g
[1]; 6th day (after administration on days 1-3), Table 6, wilfosides 50 mg/kg
  Average body weight: 138.4 g
[1]; 7th day (after administration on days 1-3), Table 3, crude extract 300 mg/kg, others 50 mg/kg
  Average body weight: 158.8 g
[1]; 7th day (after administration on days 1-3), Table 6, wilfosides 50 mg/kg
  Average body weight: 142 g
[1]; −1st day (before administration), Table 3, crude extract 300 mg/kg, others 50 mg/kg
  Average body weight: 154.8 g
[1]; −1st day (before administration), Table 6, wilfosides 50 mg/kg
  Average body weight: 145.6 g
[1]; −2nd day (before administration), Table 3, crude extract 300 mg/kg, others 50 mg/kg
  Average body weight: 152.8 g
[1]; −2nd day (before administration), Table 6, wilfosides 50 mg/kg
  Average body weight: 144.4 g
[1]; −3rd day (before administration), Table 3, crude extract 300 mg/kg, others 50 mg/kg
  Average body weight: 152 g
[1]; −3rd day (before administration), Table 6, wilfosides 50 mg/kg
  Average body weight: 140.8 g
[1]; −4th day (before administration), Table 3, crude extract 300 mg/kg, others 50 mg/kg
  Average body weight: 149.6 g
[1]; −4th day (before administration), Table 6, wilfosides 50 mg/kg
  Average body weight: 138 g
[1]; −5th day (before administration), Table 3, crude extract 300 mg/kg, others 50 mg/kg
  Average body weight: 145.6 g
[1]; −5th day (before administration), Table 6, wilfosides 50 mg/kg
  Average body weight: 135.6 g
[1]; −6th day (before administration), Table 3, crude extract 300 mg/kg, others 50 mg/kg
  Average body weight: 144.8 g
[1]; −6th day (before administration), Table 6, wilfosides 50 mg/kg
  Average body weight: 132.8 g
[1]; −7th day (before administration), Table 3, crude extract 300 mg/kg, others 50 mg/kg
  Average body weight: 140.4 g
[1]; −7th day (before administration), Table 6, wilfosides 50 mg/kg
  Average body weight: 132 g

— US9012611B2, “Use of 3,8,12,14, 17,20-oxo-substituted pregnene glycosides in the preparation of healthcare products, food additives and pharmaceuticals for the inhibition of appetite” (Institute of Materia Medica, Chinese Academy of Sciences, priority 2010, dated 2015)
